test system: HCT116 MTAP null cells; assay: HCT116 MTAP null cell proliferation / viability (CellTiter-Glo, 6 days); format: cell-based; settings: HCT116-MTAP null, 144 h, HCT116 MTAP null cells, 6 days, CellTiter-Glo; read-out: HCT-116 MTAP null IC50
Protocol: (§1) HCT116 MTAP null and WT cells were seeded in 96-well tissue culture plates in RPMI 1640 media+10% fetal bovine serum. Plates were incubated overnight at 37° C. and 5% CO2. Cells were then treated with an 8- or 9-point serial dilution of compound, using a top concentration of 1, or 10 μM, 1:3 serial dilution steps and, a DMSO-only control. Cells were incubated in the presence of drug for 6 days. Effects on cell viability were measured with the CellTiter-Glo® Luminescent Cell Viability Assay (Promega) per manufacturer's recommendation. Assay plates were read on an EnVision™ Multilabel Reader using the Ultra-Sensitive luminescence module. IC50 values were calculated with GraphPad Prism v 5.01 using symmetrical sigmoidal dose-response least squares fit with Hill slope fixed to −1 and top constrain to 100% or GeneData Screener using a 4-parameter logistic model to fit dose response curves.
(§2) Alternatively, compounds could be assayed with a 384 well plate format:
(§3) Compounds were pre-spotted into 384 well plates with a 22-point serial dilution of compound, using a top concentration of 10 or 50 μM, 1:2 serial dilution steps and, a DMSO-only control. HCT116 MTAP null and WT cells were then seeded as above and after 6 days effects on cell viability were measured with the CellTiter-Glo® Luminescent Cell Viability Assay (Promega). Assay plates were read as above and IC50 values were calculated with GeneData Screener using a 4-parameter logistic model to fit dose response curves. The reported IC50 represents the value where the curve transits 50% of control.

| IC50 [nM] | Structure (SMILES) |
| --- | --- |
| 26 | COCC(C)N(Cc1ccc(C(F)(F)F)nn1)C(=O)c1ccc2nc(N)c3c(c2c1)CO[C@@H]3C (mixture of isomers) [Example 304, (3R)-4-amino-N-((2R)-1-methoxy-2-propanyl)-3-methyl-N-((6-(trifluoromethyl)-3-pyridazinyl)methyl)-1,3-dihydrofuro[3,4-c]quinoline-8-carboxamide and (3R)-4-amino-N-((2S)-1-methoxy-2-propanyl)-3-methyl-N-((6-(trifluoromethyl)-3-pyridazinyl)methyl)-1,3-dihydrofuro[3,4-c]quinoline-8-carboxamide] |
| 254 | COCC(C)N(Cc1ccc(C(F)(F)F)nn1)C(=O)c1cc2c3c(c(N)nc2cn1)[C@@H](C)OC3 (mixture of isomers) [Example 314, (3R)-4-amino-N-((2R)-1-methoxy-2-propanyl)-3-methyl-N-((6-(trifluoromethyl)-3-pyridazinyl)methyl)-1,3-dihydrofuro[3,4-c][1,7]naphthyridine-8-carboxamide and (3R)-4-amino-N-((2S)-1-methoxy-2-propanyl)-3-methyl-N-((6-(trifluoromethyl)-3-pyridazinyl)methyl)-1,3-dihydrofuro[3,4-c][1,7]naphthyridine-8-carboxamide] |
| 24 | COCC(C)N(Cc1ccc(C(F)(F)F)nn1)C(=O)c1ccc2nc(N)c3c(c2c1)COC3 (racemic) [Example 303, 4-amino-N-((2R)-1-methoxy-2-propanyl)-N-((6-(trifluoromethyl)-3-pyridazinyl)methyl)-1,3-dihydrofuro[3,4-c]quinoline-8-carboxamide and 4-amino-N-((2S)-1-methoxy-2-propanyl)-N-((6-(trifluoromethyl)-3-pyridazinyl)methyl)-1,3-dihydrofuro[3,4-c]quinoline-8-carboxamide] |
| 262 | COCC(C)N(Cc1ccc(C(F)(F)F)nn1)C(=O)c1cc2c3c(c(N)nc2cn1)COC3 (racemic) [Example 390, 4-amino-N-((2R)-1-methoxy-2-propanyl)-N-((6-(trifluoromethyl)-3-pyridazinyl)methyl)-1,3-dihydrofuro[3,4-c][1,7]naphthyridine-8-carboxamide and 4-amino-N-((2S)-1-methoxy-2-propanyl)-N-((6-(trifluoromethyl)-3-pyridazinyl)methyl)-1,3-dihydrofuro[3,4-c][1,7]naphthyridine-8-carboxamide] |
| 361 | CC(C)N(Cc1ccc(Br)nn1)C(=O)c1ccc2nc(N)c3c(c2c1)COC3 [Example 335, 4-amino-N-((6-bromo-3-pyridazinyl)methyl)-N-(2-propanyl)-1,3-dihydrofuro[3,4-c]quinoline-8-carboxamide] |
| 1310 | CC(C)(C)CN(Cc1ccc(C(F)(F)F)cn1)C(=O)c1ccc2nc(N)c3c(c2c1)COC3 [Example 342, 4-amino-N-(2,2-dimethylpropyl)-N-((5-(trifluoromethyl)-2-pyridinyl)methyl)-1,3-dihydrofuro[3,4-c]quinoline-8-carboxamide] |
| 249 | CC1(N(Cc2ccc(C(F)(F)F)cn2)C(=O)c2cc3c4c(c(N)nc3cn2)COC4)CC1 [Example 699, 4-amino-N-(1-methylcyclopropyl)-N-((5-(trifluoromethyl)-2-pyridinyl)methyl)-1,3-dihydrofuro[3,4-c][1,7]naphthyridine-8-carboxamide] |
| 40 | CC1OCc2c1c(N)nc1ccc(C(=O)N(Cc3ccc(C(F)(F)F)cn3)C(C)C3CCOCC3)cc21 (stereo not drawn) [Example 891, 4-amino-3-methyl-N-(1-(tetrahydro-2H-pyran-4-yl)ethyl)-N-((5-(trifluoromethyl)pyridin-2-yl)methyl)-1,3-dihydrofuro[3,4-c]quinoline-8-carboxamide] |
| 41 | CC1OCc2c1c(N)nc1ccc(C(=O)N(Cc3ccc(C(F)(F)F)cn3)C[C@H]3CC[C@H](O)CC3)cc21 (stereo partly drawn) [Example 893, 4-amino-N-(((1r,4r)-4-hydroxycyclohexyl)methyl)-3-methyl-N-((5-(trifluoromethyl)pyridin-2-yl)methyl)-1,3-dihydrofuro[3,4-c]quinoline-8-carboxamide] |
| 180 | CC1OCc2c1c(N)nc1ccc(C(=O)N(Cc3ccc(C#N)cn3)C[C@H]3CC[C@H](O)CC3)cc21 (stereo partly drawn) [Example 894, 4-amino-N-((5-cyanopyridin-2-yl)methyl)-N-(((1r,4r)-4-hydroxycyclohexyl)methyl)-3-methyl-1,3-dihydrofuro[3,4-c]quinoline-8-carboxamide] |
| 790 | CC1OCc2c1c(N)nc1ccc(C(=O)N(Cc3ccc(C(F)(F)F)cn3)C3CC3N)cc21 (stereo not drawn) [Example 906, 4-amino-N-(2-aminocyclopropyl)-3-methyl-N-((5-(trifluoromethyl)pyridin-2-yl)methyl)-1,3-dihydrofuro[3,4-c]quinoline-8-carboxamide] |
| 140 | CC1OCc2c1c(N)nc1ccc(C(=O)N(CC3=CCCOC3)Cc3ccc(C#N)cn3)cc21 (stereo not drawn) [Example 912, 4-amino-N-((5-cyanopyridin-2-yl)methyl)-N-((5,6-dihydro-2H-pyran-3-yl)methyl)-3-methyl-1,3-dihydrofuro[3,4-c]quinoline-8-carboxamide] |
| 200 | CC1OCc2c1c(N)nc1ccc(C(=O)N(Cc3ccc(C#N)cn3)Cc3cnc(N)s3)cc21 (stereo not drawn) [Example 914, 4-amino-N-((2-aminothiazol-5-yl)methyl)-N-((5-cyanopyridin-2-yl)methyl)-3-methyl-1,3-dihydrofuro[3,4-c]quinoline-8-carboxamide] |
| 25 | CC(C)CN(Cc1ccc(C(F)(F)F)cn1)C(=O)c1ccc2nc(N)c3c(c2c1)COC3C (stereo not drawn) [Example 919, 4-amino-N-isobutyl-3-methyl-N-((5-(trifluoromethyl)pyridin-2-yl)methyl)-1,3-dihydrofuro[3,4-c]quinoline-8-carboxamide] |
| 76 | CC1OCc2c1c(N)nc1ccc(C(=O)N(Cc3ccc(C(F)(F)F)cn3)C(C)C(C)O)cc21 (stereo not drawn) [Example 920, 4-amino-N-(3-hydroxybutan-2-yl)-3-methyl-N-((5-(trifluoromethyl)pyridin-2-yl)methyl)-1,3-dihydrofuro[3,4-c]quinoline-8-carboxamide] |
| 93 | CC1OCc2c1c(N)nc1ccc(C(=O)N(Cc3ccc(C(F)(F)F)cn3)C3CCCC(O)C3)cc21 (stereo not drawn) [Example 921, 4-amino-N-(3-hydroxycyclohexyl)-3-methyl-N-((5-(trifluoromethyl)pyridin-2-yl)methyl)-1,3-dihydrofuro[3,4-c]quinoline-8-carboxamide] |
| 48 | CC1OCc2c1c(N)nc1ccc(C(=O)N(CCC3CC(O)C3)Cc3ccc(C(F)(F)F)cn3)cc21 (stereo not drawn) [Example 922, 4-amino-N-(2-(3-hydroxycyclobutyl)ethyl)-3-methyl-N-((5-(trifluoromethyl)pyridin-2-yl)methyl)-1,3-dihydrofuro[3,4-c]quinoline-8-carboxamide] |
| 56 | CC(O)CN(Cc1ccc(C(F)(F)F)cn1)C(=O)c1ccc2nc(N)c3c(c2c1)COC3C (stereo not drawn) [Example 923, 4-amino-N-(2-hydroxypropyl)-3-methyl-N-((5-(trifluoromethyl)pyridin-2-yl)methyl)-1,3-dihydrofuro[3,4-c]quinoline-8-carboxamide] |
| 43 | CC(CO)CN(Cc1ccc(C(F)(F)F)cn1)C(=O)c1ccc2nc(N)c3c(c2c1)COC3C (stereo not drawn) [Example 924, 4-amino-N-(3-hydroxy-2-methylpropyl)-3-methyl-N-((5-(trifluoromethyl)pyridin-2-yl)methyl)-1,3-dihydrofuro[3,4-c]quinoline-8-carboxamide] |
| 35 | CC1OCc2c1c(N)nc1ccc(C(=O)N(Cc3ccc(C(F)(F)F)cn3)CC(O)C(F)(F)F)cc21 (stereo not drawn) [Example 925, 4-amino-3-methyl-N-(3,3,3-trifluoro-2-hydroxypropyl)-N-((5-(trifluoromethyl)pyridin-2-yl)methyl)-1,3-dihydrofuro[3,4-c]quinoline-8-carboxamide] |
| 30 | CC1OCc2c1c(N)nc1ccc(C(=O)N(Cc3ccc(C(F)(F)F)cn3)Cc3ncn(C)n3)cc21 (stereo not drawn) [Example 926, 4-amino-3-methyl-N-((1-methyl-1H-1,2,4-triazol-3-yl)methyl)-N-((5-(trifluoromethyl)pyridin-2-yl)methyl)-1,3-dihydrofuro[3,4-c]quinoline-8-carboxamide] |
| 69 | CC1OCc2c1c(N)nc1ccc(C(=O)N(Cc3ccc(C(F)(F)F)cn3)CC3CCOC3)cc21 (stereo not drawn) [Example 927, 4-amino-3-methyl-N-((tetrahydrofuran-3-yl)methyl)-N-((5-(trifluoromethyl)pyridin-2-yl)methyl)-1,3-dihydrofuro[3,4-c]quinoline-8-carboxamide] |
| 39 | CC(C#N)CN(Cc1ccc(C(F)(F)F)cn1)C(=O)c1ccc2nc(N)c3c(c2c1)COC3C (stereo not drawn) [Example 928, 4-amino-N-(2-cyanopropyl)-3-methyl-N-((5-(trifluoromethyl)pyridin-2-yl)methyl)-1,3-dihydrofuro[3,4-c]quinoline-8-carboxamide] |

test system: HCT116 WT cells; assay: HCT116 WT cell proliferation / viability (CellTiter-Glo, 6 days); format: cell-based; settings: Homo sapiens, HCT-116, 144 h, HCT116 WT cells, 6 days, CellTiter-Glo; read-out: HCT-116 WT IC50
Protocol: as §1, §2, §3

| IC50 [nM] | Structure (SMILES) |
| --- | --- |
| 352 | COCC(C)N(Cc1ccc(C(F)(F)F)nn1)C(=O)c1ccc2nc(N)c3c(c2c1)CO[C@@H]3C (mixture of isomers) [Example 304, (3R)-4-amino-N-((2R)-1-methoxy-2-propanyl)-3-methyl-N-((6-(trifluoromethyl)-3-pyridazinyl)methyl)-1,3-dihydrofuro[3,4-c]quinoline-8-carboxamide and (3R)-4-amino-N-((2S)-1-methoxy-2-propanyl)-3-methyl-N-((6-(trifluoromethyl)-3-pyridazinyl)methyl)-1,3-dihydrofuro[3,4-c]quinoline-8-carboxamide] |
| 15200 | COCC(C)N(Cc1ccc(C(F)(F)F)nn1)C(=O)c1cc2c3c(c(N)nc2cn1)[C@@H](C)OC3 (mixture of isomers) [Example 314, (3R)-4-amino-N-((2R)-1-methoxy-2-propanyl)-3-methyl-N-((6-(trifluoromethyl)-3-pyridazinyl)methyl)-1,3-dihydrofuro[3,4-c][1,7]naphthyridine-8-carboxamide and (3R)-4-amino-N-((2S)-1-methoxy-2-propanyl)-3-methyl-N-((6-(trifluoromethyl)-3-pyridazinyl)methyl)-1,3-dihydrofuro[3,4-c][1,7]naphthyridine-8-carboxamide] |
| 574 | COCC(C)N(Cc1ccc(C(F)(F)F)nn1)C(=O)c1ccc2nc(N)c3c(c2c1)COC3 (racemic) [Example 303, 4-amino-N-((2R)-1-methoxy-2-propanyl)-N-((6-(trifluoromethyl)-3-pyridazinyl)methyl)-1,3-dihydrofuro[3,4-c]quinoline-8-carboxamide and 4-amino-N-((2S)-1-methoxy-2-propanyl)-N-((6-(trifluoromethyl)-3-pyridazinyl)methyl)-1,3-dihydrofuro[3,4-c]quinoline-8-carboxamide] |
| 9900 | COCC(C)N(Cc1ccc(C(F)(F)F)nn1)C(=O)c1cc2c3c(c(N)nc2cn1)COC3 (racemic) [Example 390, 4-amino-N-((2R)-1-methoxy-2-propanyl)-N-((6-(trifluoromethyl)-3-pyridazinyl)methyl)-1,3-dihydrofuro[3,4-c][1,7]naphthyridine-8-carboxamide and 4-amino-N-((2S)-1-methoxy-2-propanyl)-N-((6-(trifluoromethyl)-3-pyridazinyl)methyl)-1,3-dihydrofuro[3,4-c][1,7]naphthyridine-8-carboxamide] |

From patent publication US20240101570A1 (AMGEN INC., priority 2020, published 2024)
